# Data: the supplement of paper PMC10307832
# Key:
# Test in all cases: relative viability (nuclei count vs DMSO), 5 days (fraction); higher = more cells survive
# [1] = tested on: 201T
# Method in brief: (§1)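 Lung cancer cell lines, seeded in 1536-well plates, were treated the following day by pin tool with a single drug or with five library-drug doses (not always all listed) in √10 steps on top of a fixed anchor-drug dose. Cells were fixed and nuclei stained in one step after 5 days, and nuclei were counted. Relative viability is the nuclei count for treated wells divided by that for vehicle wells, reported as medians of duplicate plates.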
# [2] = tested on: A-427
# Method in brief: as §1
# [3] = tested on: COR-L23
# Method in brief: as §1
# [4] = tested on: H3255
# Method in brief: as §1
# [5] = tested on: LCLC-103H
# Method in brief: as §1
# [6] = tested on: LCLC-97TM1
# Method in brief: as §1
# [7] = tested on: LK-2
# Method in brief: as §1
# [8] = tested on: LU99A
# Method in brief: as §1
# [9] = tested on: NCI-H1650
# Method in brief: as §1
# [10] = tested on: NCI-H1651
# Method in brief: as §1
# [11] = tested on: NCI-H1793
# Method in brief: as §1
# [12] = tested on: NCI-H1944
# Method in brief: as §1
# [13] = tested on: NCI-H2347
# Method in brief: as §1
# [14] = tested on: NCI-H23
# Method in brief: as §1
# [15] = tested on: NCI-H460
# Method in brief: as §1
# [16] = tested on: NCI-H650
# Method in brief: as §1
# [17] = tested on: NCI-H727
# Method in brief: as §1
# [18] = tested on: NCI-H838
# Method in brief: as §1
# [19] = tested on: PC-14
# Method in brief: as §1
# [20] = tested on: PC-3 [JPC-3]
# Method in brief: as §1
# [21] = tested on: RERF-LC-KJ
# Method in brief: as §1
# [22] = tested on: SW 1573
# Method in brief: as §1
# [23] = tested on: SW 900
# Method in brief: as §1
structure (smiles),measurement,setting,value
C[C@@H]1CN(CC(=O)Nc2ccc3c(c2)Cc2cccc(-c4cc(=O)cc(N5CCOCC5)o4)c2S3)C[C@H](C)O1 + CC(=O)c1c(C)c2cnc(Nc3ccc(N4CCNCC4)cn3)nc2n(C2CCCC2)c1=O [Palbociclib] (partner 0.5 µM),relative viability,[1]; first compound 0.04 µM,0.345
same,relative viability,[1]; first compound 0.1265 µM,0.35
same,relative viability,[1]; first compound 0.4 µM,0.361
same,relative viability,[1]; first compound 4 µM,0.336
same,relative viability,[2]; first compound 0.04 µM,0.428
same,relative viability,[2]; first compound 0.1265 µM,0.531
same,relative viability,[2]; first compound 0.4 µM,0.537
same,relative viability,[2]; first compound 4 µM,0.593
same,relative viability,[3]; first compound 0.04 µM,0.294
same,relative viability,[3]; first compound 0.1265 µM,0.281
same,relative viability,[3]; first compound 0.4 µM,0.379
same,relative viability,[3]; first compound 4 µM,0.24
same,relative viability,[4]; first compound 0.04 µM,0.276
same,relative viability,[4]; first compound 0.1265 µM,0.345
same,relative viability,[4]; first compound 0.4 µM,0.268
same,relative viability,[4]; first compound 4 µM,0.305
same,relative viability,[5]; first compound 0.04 µM,0.441
same,relative viability,[5]; first compound 0.1265 µM,0.47
same,relative viability,[5]; first compound 0.4 µM,0.446
same,relative viability,[5]; first compound 4 µM,0.47
same,relative viability,[6]; first compound 0.1265 µM,0.25
same,relative viability,[6]; first compound 0.4 µM,0.206
same,relative viability,[6]; first compound 4 µM,0.246
same,relative viability,[7]; first compound 0.04 µM,0.6
same,relative viability,[7]; first compound 0.1265 µM,0.697
same,relative viability,[7]; first compound 0.4 µM,0.651
same,relative viability,[7]; first compound 4 µM,0.792
same,relative viability,[8]; first compound 0.04 µM,0.387
same,relative viability,[8]; first compound 0.1265 µM,0.404
same,relative viability,[8]; first compound 0.4 µM,0.449
same,relative viability,[8]; first compound 4 µM,0.445
same,relative viability,[9]; first compound 0.04 µM,0.376
same,relative viability,[9]; first compound 0.1265 µM,0.397
same,relative viability,[9]; first compound 0.4 µM,0.285
same,relative viability,[9]; first compound 4 µM,0.262
same,relative viability,[10]; first compound 0.04 µM,0.543
same,relative viability,[10]; first compound 0.1265 µM,0.502
same,relative viability,[10]; first compound 0.4 µM,0.51
same,relative viability,[10]; first compound 4 µM,0.527
same,relative viability,[11]; first compound 0.04 µM,0.297
same,relative viability,[11]; first compound 0.1265 µM,0.323
same,relative viability,[11]; first compound 0.4 µM,0.296
same,relative viability,[11]; first compound 4 µM,0.2
same,relative viability,[12]; first compound 0.1265 µM,0.343
same,relative viability,[12]; first compound 0.4 µM,0.344
same,relative viability,[12]; first compound 4 µM,0.354
same,relative viability,[13]; first compound 0.04 µM,0.377
same,relative viability,[13]; first compound 0.1265 µM,0.493
same,relative viability,[13]; first compound 0.4 µM,0.459
same,relative viability,[13]; first compound 4 µM,0.404
same,relative viability,[14]; first compound 0.04 µM,0.455
same,relative viability,[14]; first compound 0.1265 µM,0.538
same,relative viability,[14]; first compound 0.4 µM,0.436
same,relative viability,[14]; first compound 4 µM,0.495
same,relative viability,[15]; first compound 0.04 µM,0.271
same,relative viability,[15]; first compound 0.1265 µM,0.155
same,relative viability,[15]; first compound 0.4 µM,0.137
same,relative viability,[15]; first compound 4 µM,0.143
same,relative viability,[16]; first compound 0.04 µM,0.319
same,relative viability,[16]; first compound 0.1265 µM,0.389
same,relative viability,[16]; first compound 0.4 µM,0.378
same,relative viability,[16]; first compound 4 µM,0.281
same,relative viability,[17]; first compound 0.04 µM,0.852
same,relative viability,[17]; first compound 0.1265 µM,0.596
same,relative viability,[17]; first compound 0.4 µM,0.679
same,relative viability,[17]; first compound 4 µM,0.675
same,relative viability,[18]; first compound 0.04 µM,0.233
same,relative viability,[18]; first compound 0.1265 µM,0.204
same,relative viability,[18]; first compound 0.4 µM,0.207
same,relative viability,[18]; first compound 4 µM,0.179
same,relative viability,[19]; first compound 0.04 µM,0.529
same,relative viability,[19]; first compound 0.1265 µM,0.506
same,relative viability,[19]; first compound 0.4 µM,0.568
same,relative viability,[19]; first compound 4 µM,0.423
same,relative viability,[20]; first compound 0.04 µM,0.501
same,relative viability,[20]; first compound 0.1265 µM,0.515
same,relative viability,[20]; first compound 0.4 µM,0.535
same,relative viability,[20]; first compound 4 µM,0.477
same,relative viability,[21]; first compound 0.04 µM,1.03
same,relative viability,[21]; first compound 0.1265 µM,1.05
same,relative viability,[21]; first compound 0.4 µM,1.17
same,relative viability,[21]; first compound 4 µM,0.818
same,relative viability,[22]; first compound 0.04 µM,0.501
same,relative viability,[22]; first compound 0.1265 µM,0.337
same,relative viability,[22]; first compound 0.4 µM,0.393
same,relative viability,[22]; first compound 4 µM,0.264
same,relative viability,[23]; first compound 0.04 µM,0.532
same,relative viability,[23]; first compound 0.1265 µM,0.472
same,relative viability,[23]; first compound 0.4 µM,0.564
same,relative viability,[23]; first compound 4 µM,0.412
